Literature values as cited in patent US20070149611A1, “CB-DELTA8-THC COMPOSITION” (priority 2003, published 2007).

Legend:
[1] = CBD alone
[2] = more effective than Δ^9-THC; Abrahamov et al, 1995
[3] = Δ^9-THC is easily oxidized to cannabinol
[4] = relative to Δ^9-THC

**Q.** Which “effects when administered on its own” value [1] does the source give for C=C(C)[C@@H]1CCC(C)=C[C@H]1c1c(O)cc(CCCCC)cc1O [CBD, cannabidiol] here?
**A.** Its value is “no noticeable effects”.

**Q.** What does the source list for CCCCCc1cc(O)c2c(c1)OC(C)(C)[C@@H]1CC=C(C)C[C@@H]21 [Δ^8-THC, Δ^8-tetrahydrocannabinol]?
**A.** anti-emetic effectiveness relative to Δ^9-THC [2]: 200%; stability towards oxidation to cannabinol [3]: very stable; psychometric potency, less potent than Δ^9-THC (generally considered) [4]: 50%; psychometric potency, times less potent than Δ^9-THC (in some cases) [4]: 3-10 times
